Assay results taken from PubChem BioAssay (NCI).
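How tested: cells in 96-well plates exposed to compound for 48 hours at five concentrations. At the GI50, growth is halved. TGI marks complete inhibition of growth.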

Legend:
Test in all cases: NCI-60 cell line screen, 48 h
[1] = test system: SF-268 CNS
[2] = test system: HL-60(TB) leukemia
[3] = test system: SF-295 CNS
[4] = test system: 786-0 renal
[5] = test system: NCI-H522 lung
[6] = test system: MALME-3M melanoma
[7] = test system: SK-MEL-2 melanoma
[8] = test system: MCF7 breast
[9] = test system: EKVX NSCLC
[10] = test system: A549 NSCLC
[11] = test system: UO-31 renal
[12] = test system: MDA-MB-435
[13] = test system: PC-3 prostate
[14] = test system: A498 renal
[15] = test system: SNB-19 CNS
[16] = test system: NCI/ADR-RES ovarian
[17] = test system: OVCAR-8 ovarian
[18] = test system: MOLT-4 leukemia
[19] = test system: CCRF-CEM leukemia
[20] = test system: SK-MEL-5 melanoma
[21] = test system: HCT-15 colon
[22] = test system: M14 melanoma
[23] = test system: UACC-257 melanoma
[24] = test system: RXF 393 renal
[25] = test system: HCT-116 colon
[26] = test system: BT-549 breast
[27] = test system: TK-10 renal

Cc1cc(NC(=O)c2cnc(N3CCN(CCOCCOCCOCCOCCC(=O)N[C@H](C(=O)N4C[C@H](O)C[C@H]4C(=O)N[C@@H](C)c4ccc(-c5scnc5C)cc4)C(C)(C)C)CC3)cn2)c2ncccc2c1 gave a GI50 [1] of 3.02 µM, a TGI [1] of 18.3 µM and a GI50 [2] of 2.3 µM. It also gave a TGI [2] of 5.71 µM, a GI50 [3] of 2.23 µM and a TGI [3] of 6.31 µM. The GI50 [4] was 4.61 µM, the TGI [4] was greater than 100 µM and the GI50 [5] was 1.96 µM. For the same molecule, the TGI [5] was 6.16 µM, the GI50 [6] was 1.76 µM and the TGI [6] was 3.68 µM. For the same molecule, the GI50 [7] was 3.17 µM, the TGI [7] was 11 µM and the GI50 [8] was 3.14 µM. The TGI [8] was greater than 100 µM, the GI50 [9] was 4.9 µM and the TGI [9] was greater than 100 µM. It also gave a GI50 [10] of 6.19 µM, a TGI [10] greater than 100 µM and a GI50 [11] of 12.7 µM. The TGI [11] was greater than 100 µM, the GI50 [12] was 2.25 µM and the TGI [12] was 5.38 µM. The GI50 [13] was 2.85 µM, the TGI [13] was 10.4 µM and the GI50 [14] was 5.06 µM. It also gave a TGI [14] of 29 µM, a GI50 [15] of 3.59 µM and a TGI [15] of 14.7 µM. For the same molecule, the GI50 [16] was greater than 100 µM, the TGI [16] was greater than 100 µM and the GI50 [17] was 3.38 µM. For the same molecule, the TGI [17] was greater than 100 µM, the GI50 [18] was 3.12 µM and the TGI [18] was 9.67 µM. For the same molecule, the GI50 [19] was 3.37 µM, the TGI [19] was greater than 100 µM and the GI50 [20] was 2.36 µM. For the same molecule, the TGI [20] was 5.72 µM, the GI50 [21] was 6.39 µM and the TGI [21] was greater than 100 µM. The GI50 [22] was 2.19 µM, the TGI [22] was 4.94 µM and the GI50 [23] was 2.81 µM. The TGI [23] was 7.97 µM, the GI50 [24] was 1.73 µM and the TGI [24] was 3.71 µM. It also gave a GI50 [25] of 1.79 µM, a TGI [25] of 3.38 µM and a GI50 [26] of 1.83 µM. It also gave a TGI [26] of 3.69 µM, a GI50 [27] of 10.7 µM and a TGI [27] of 53.4 µM.
